Experiment [1] can be described thus: T. cruzi infection blockers in NIH3T3 cells – beta-gal luminescence, NIH3T3 host cells, confirmation (AID 2630). The format is functional, cell-based. The note with it: Mus musculus.
Experiment [2] can be described thus: Luminescence Cell-Based/Microorganism Confirmation at Dose of Inhibitors of Trypanosoma cruzi Infection. [Related pubchem assays: 1885, 1968 ]. The class given is functional.
A short description of experiment [3]: Luminescence Cell-Based Secondary HTS screen to identify cytotoxic compounds of NIH3T3 cells. [Related pubchem assays: 1885, 1968 ]. The format is functional.
Experiment [4] deals with Disintegrin and metalloproteinase domain-containing protein 17 (Homo sapiens, UniProt P78536). The experiment can be described thus: inhibition of ADAM17 substrate cleavage – biochemical, quenched FRET substrate, counter-screen for ADAM10 exosite inhibitor project, dose response (AID 743253). On the technique in general: The purpose of a counterscreen is to sort out artefacts and off-target activity.
Sequence of Disintegrin and metalloproteinase domain-containing protein 17 (P78536 whole entry, the tested form may be a part): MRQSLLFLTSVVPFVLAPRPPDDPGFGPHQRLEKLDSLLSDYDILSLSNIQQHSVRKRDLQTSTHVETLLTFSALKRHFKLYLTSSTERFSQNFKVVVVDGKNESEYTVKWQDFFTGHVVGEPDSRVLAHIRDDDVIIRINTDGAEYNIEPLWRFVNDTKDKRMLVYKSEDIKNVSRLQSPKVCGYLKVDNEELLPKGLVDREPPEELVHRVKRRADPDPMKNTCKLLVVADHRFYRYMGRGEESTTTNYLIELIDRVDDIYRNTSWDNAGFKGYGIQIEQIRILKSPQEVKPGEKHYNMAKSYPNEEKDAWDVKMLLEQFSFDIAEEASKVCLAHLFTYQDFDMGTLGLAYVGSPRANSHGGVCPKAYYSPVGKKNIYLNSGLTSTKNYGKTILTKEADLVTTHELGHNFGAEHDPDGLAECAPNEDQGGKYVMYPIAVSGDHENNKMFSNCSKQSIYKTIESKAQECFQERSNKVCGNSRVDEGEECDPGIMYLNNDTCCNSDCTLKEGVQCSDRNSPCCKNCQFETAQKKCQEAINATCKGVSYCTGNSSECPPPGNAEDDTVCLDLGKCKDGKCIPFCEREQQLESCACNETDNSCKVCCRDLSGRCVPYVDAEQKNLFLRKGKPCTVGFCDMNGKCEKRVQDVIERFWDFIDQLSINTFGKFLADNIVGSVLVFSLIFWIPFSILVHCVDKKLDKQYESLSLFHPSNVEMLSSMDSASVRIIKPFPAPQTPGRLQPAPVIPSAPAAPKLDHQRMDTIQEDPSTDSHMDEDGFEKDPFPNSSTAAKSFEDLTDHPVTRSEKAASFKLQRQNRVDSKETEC

Experiment [5] is described as follows: potency of ADAM10 substrate cleavage blockers – biochemical, QFRET, dose response (AID 743254).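 Note: ADAM10 enzyme with the DM2 quenched FRET peptide as substrate; EDANS fluorescence gain as the protease cuts the substrate; inhibitor potency against ADAM10 proteolytic activity.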
For experiment [6], the target named is CAAX prenyl protease 1 (Saccharomyces cerevisiae S288c, UniProt P47154). The experiment is described as follows: yeast CAAX protease Ste24 inhibition – biochemical, S. cerevisiae, plate reader, cherry-pick, dose response (AID 488815).
Sequence of CAAX prenyl protease 1 (P47154 whole entry): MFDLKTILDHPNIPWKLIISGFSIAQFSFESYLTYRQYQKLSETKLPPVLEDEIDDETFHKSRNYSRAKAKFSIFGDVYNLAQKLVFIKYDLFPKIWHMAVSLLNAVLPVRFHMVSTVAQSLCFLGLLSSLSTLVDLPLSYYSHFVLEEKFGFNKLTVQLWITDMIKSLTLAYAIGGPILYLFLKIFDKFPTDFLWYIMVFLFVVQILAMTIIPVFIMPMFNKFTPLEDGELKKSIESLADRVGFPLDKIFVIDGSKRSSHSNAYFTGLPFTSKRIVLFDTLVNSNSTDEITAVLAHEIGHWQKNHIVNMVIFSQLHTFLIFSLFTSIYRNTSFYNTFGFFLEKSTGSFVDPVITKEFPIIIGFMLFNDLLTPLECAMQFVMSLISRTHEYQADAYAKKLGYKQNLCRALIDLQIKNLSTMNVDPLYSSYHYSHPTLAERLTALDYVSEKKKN
For experiment [7], the target named is T1, CAAX prenyl protease 2 (Saccharomyces cerevisiae S288c, UniProt Q03530).
T1 sequence (Q03530 whole entry): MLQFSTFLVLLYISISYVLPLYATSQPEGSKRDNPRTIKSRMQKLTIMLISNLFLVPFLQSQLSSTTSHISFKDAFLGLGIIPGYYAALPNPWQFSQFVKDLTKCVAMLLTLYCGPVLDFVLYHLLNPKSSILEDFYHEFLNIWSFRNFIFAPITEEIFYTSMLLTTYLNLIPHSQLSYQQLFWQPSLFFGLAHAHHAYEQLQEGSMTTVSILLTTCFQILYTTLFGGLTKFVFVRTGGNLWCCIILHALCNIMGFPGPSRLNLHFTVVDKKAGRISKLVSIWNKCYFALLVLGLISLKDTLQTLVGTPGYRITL
The format is biochemical.

The target in experiment [8] is Paired box protein Pax-8 (Homo sapiens, UniProt Q06710). The experiment is described as follows: PAX8 transcriptional activity inhibition in RMG-I – RMG-I cells, luciferase, cherry-pick, dose response (AID 687027).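 Note: luciferase reporter driven by Pax8 target thyroperoxidase promoter measured by SteadyGlo luminescence.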 The class given is functional, cell-based.
Sequence of Paired box protein Pax-8 (Q06710 whole entry): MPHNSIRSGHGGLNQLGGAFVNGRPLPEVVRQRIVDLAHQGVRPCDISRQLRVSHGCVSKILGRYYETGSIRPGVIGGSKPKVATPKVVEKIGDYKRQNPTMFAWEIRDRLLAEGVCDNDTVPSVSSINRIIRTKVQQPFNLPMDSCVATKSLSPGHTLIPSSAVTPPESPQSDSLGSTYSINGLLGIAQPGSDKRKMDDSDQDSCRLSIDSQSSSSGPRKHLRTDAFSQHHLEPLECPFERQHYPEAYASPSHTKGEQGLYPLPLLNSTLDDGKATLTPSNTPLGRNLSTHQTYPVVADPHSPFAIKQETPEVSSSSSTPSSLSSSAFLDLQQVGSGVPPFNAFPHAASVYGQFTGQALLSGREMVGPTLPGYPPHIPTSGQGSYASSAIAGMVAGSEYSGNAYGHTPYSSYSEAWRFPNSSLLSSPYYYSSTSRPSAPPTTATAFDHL
Experiment [9] concerns the target T2, Dual specificity protein phosphatase 6 (Rattus norvegicus, UniProt Q64346).
T2 sequence (Q64346 whole entry): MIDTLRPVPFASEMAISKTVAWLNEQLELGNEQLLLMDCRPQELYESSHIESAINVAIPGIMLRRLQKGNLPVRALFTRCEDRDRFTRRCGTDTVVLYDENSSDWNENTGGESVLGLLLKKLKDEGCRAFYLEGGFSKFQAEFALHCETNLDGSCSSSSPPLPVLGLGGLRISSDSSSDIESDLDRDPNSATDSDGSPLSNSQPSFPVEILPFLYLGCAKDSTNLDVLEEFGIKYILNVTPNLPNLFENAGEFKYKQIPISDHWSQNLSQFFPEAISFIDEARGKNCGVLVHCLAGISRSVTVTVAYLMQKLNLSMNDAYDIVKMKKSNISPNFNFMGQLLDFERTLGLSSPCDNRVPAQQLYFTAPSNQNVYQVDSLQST
The class given is functional.

The target in experiment [10] is T3, Dual specificity protein phosphatase 3 (Homo sapiens, UniProt P51452). The experiment can be described thus: SAR VHR1 absorbance Assay for In Vitro dose response studies. [Related pubchem assays (depositor defined):AID1654, AID1661, AID1878, AID1992, AID2004].
T3 sequence (P51452 whole entry): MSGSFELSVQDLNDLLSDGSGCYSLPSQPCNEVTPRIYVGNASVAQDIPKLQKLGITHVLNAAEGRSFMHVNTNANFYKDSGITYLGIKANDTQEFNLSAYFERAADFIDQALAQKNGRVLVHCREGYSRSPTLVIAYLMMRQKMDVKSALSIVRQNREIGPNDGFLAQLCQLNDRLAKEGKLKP
Experiment [11] addresses Tyrosine-protein phosphatase non-receptor type 5 (Homo sapiens, UniProt P54829). The experiment can be described thus: PTPN5 enzyme inhibition – biochemical, fluorescence intensity, uHTS hits, confirmation (AID 602372). The class given is functional. Particulars: read-out: IC50_Mean.
Experiment [12] concerns the target T3, Dual specificity protein phosphatase 3. The experiment can be described thus: VHR1 phosphatase inhibitors, biochemical (AID 1878).
For experiment [13] the target is unchanged. The experiment is described as follows: SAR VHR1 Fluorescent Assay for In Vitro dose response studies. [Related pubchem assays (depositor defined):AID1654, AID1661, AID1878, AID1992, AID2004, AID2070, AID2085]. The format is functional.
In experiment [14] the target is T4, Tyrosine-protein phosphatase non-receptor type 7 (Homo sapiens, UniProt P35236).
T4 sequence (P35236 whole entry): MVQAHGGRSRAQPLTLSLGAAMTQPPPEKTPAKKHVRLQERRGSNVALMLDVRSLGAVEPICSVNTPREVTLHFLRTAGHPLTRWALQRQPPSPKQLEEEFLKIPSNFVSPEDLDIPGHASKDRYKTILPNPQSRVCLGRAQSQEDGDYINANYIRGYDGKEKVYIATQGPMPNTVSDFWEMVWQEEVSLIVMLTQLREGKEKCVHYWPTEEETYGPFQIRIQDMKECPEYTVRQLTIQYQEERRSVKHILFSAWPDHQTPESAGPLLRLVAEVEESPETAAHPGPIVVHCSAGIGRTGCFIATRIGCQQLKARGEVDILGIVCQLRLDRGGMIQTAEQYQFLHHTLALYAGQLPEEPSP
The experiment is described as follows: redox-active compounds inhibiting HePTP phosphatase – biochemical, fluorescence, mechanism study (AID 2068). The format is functional.

The target of experiment [15] is Tyrosine-protein phosphatase non-receptor type 11 (Homo sapiens, UniProt Q06124). The experiment can be described thus: PTPN11 enzyme inhibitors – biochemical, selectivity assay for STEP inhibitor project, dose response (AID 602367). Particulars: read-out: IC50_Mean. The class given is functional.
Sequence of Tyrosine-protein phosphatase non-receptor type 11 (Q06124 whole entry): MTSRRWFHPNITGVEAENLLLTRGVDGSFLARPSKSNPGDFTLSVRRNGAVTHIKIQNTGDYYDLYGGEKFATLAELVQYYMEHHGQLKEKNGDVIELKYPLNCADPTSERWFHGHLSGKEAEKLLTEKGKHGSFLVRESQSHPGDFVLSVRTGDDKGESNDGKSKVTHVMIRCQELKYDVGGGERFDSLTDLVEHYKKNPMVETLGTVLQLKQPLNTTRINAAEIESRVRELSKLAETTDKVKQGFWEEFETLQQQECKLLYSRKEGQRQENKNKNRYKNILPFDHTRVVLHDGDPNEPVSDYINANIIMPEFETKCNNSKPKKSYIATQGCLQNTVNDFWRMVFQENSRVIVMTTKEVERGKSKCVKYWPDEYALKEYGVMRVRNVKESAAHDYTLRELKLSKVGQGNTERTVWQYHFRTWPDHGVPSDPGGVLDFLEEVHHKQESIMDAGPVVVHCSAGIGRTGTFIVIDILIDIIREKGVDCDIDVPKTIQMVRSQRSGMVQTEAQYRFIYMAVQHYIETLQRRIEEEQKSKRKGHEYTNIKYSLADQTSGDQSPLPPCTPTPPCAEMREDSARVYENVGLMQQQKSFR
Experiment [16] concerns the target T3, Dual specificity protein phosphatase 3. The experiment is described as follows: VHR1 phosphatase inhibitors, primary screen, biochemical, absorbance, uHTS (AID 1654).
Experiment [17] shares this target. The experiment is described as follows: VHR phosphatase inhibition, dose response, selectivity assay for STEP inhibitor project, biochemical (AID 602374). The format is functional. The note with it: read-out: IC50_Mean.
Experiment [18] addresses T2, Dual specificity protein phosphatase 6. The experiment is described as follows: inhibition of rat DUSP6 enzyme activity – biochemical, in vitro, primary screen (AID 425).
Experiment [19] has as its system Vero. The experiment can be described thus: cells. The class given is functional. The note with it: Chlorocebus sabaeus.
The test system of experiment [20] is Vero. The experiment can be described thus: cells. Particulars: Chlorocebus sabaeus. The class given is functional, cell-based.
Experiment [21] concerns the target Hepatocyte nuclear factor 4-alpha (Homo sapiens, UniProt P41235). The format is functional, cell-based.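 Note: biochemical luminescence-based dose-response counterscreen measuring inhibition of HNF4 dimerization, run alongside a screen for blockers of ABHD5–perilipin-5 interaction; split luciferase complementation of HNF4 fusion proteins in cell lysate measuring dimerization.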

The values below come from ChEMBL document CHEMBL1201862, “PubChem BioAssay data set” (2004).

Calls of active or inactive are those of the source.

Sequence of Tyrosine-protein phosphatase non-receptor type 5 (P54829 whole entry): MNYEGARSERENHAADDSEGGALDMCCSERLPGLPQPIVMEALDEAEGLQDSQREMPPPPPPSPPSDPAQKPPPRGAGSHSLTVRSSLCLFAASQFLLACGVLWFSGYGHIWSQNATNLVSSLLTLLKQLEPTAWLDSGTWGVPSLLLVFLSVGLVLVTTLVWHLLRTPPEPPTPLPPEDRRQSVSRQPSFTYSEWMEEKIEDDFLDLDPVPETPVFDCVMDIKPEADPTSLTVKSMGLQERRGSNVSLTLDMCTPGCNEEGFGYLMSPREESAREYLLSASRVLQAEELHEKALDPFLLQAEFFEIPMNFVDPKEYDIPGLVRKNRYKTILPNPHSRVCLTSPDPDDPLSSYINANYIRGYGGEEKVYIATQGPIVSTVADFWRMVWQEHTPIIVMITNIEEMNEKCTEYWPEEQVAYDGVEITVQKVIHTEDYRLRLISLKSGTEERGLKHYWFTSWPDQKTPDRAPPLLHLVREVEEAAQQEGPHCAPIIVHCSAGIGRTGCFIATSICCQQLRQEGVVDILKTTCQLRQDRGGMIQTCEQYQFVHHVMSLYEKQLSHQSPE
Sequence of Hepatocyte nuclear factor 4-alpha (P41235 whole entry, the tested form may be a part): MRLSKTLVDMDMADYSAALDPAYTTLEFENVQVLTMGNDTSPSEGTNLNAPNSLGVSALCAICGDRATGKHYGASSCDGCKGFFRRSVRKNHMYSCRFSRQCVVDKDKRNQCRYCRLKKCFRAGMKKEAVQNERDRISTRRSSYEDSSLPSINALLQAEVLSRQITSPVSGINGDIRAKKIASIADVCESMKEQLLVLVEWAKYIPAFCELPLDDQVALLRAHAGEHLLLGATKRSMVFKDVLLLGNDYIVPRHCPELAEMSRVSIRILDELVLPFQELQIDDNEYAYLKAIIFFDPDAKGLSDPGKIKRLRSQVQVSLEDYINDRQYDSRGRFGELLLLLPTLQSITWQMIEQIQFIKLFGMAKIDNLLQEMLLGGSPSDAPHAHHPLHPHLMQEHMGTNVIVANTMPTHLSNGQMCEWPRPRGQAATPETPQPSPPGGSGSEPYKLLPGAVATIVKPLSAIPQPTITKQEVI

As a reminder, the EC50 is the concentration at which the effect is half-maximal. For the compound `Fc1ccc(CCNCc2ccc(Cl)c(Cl)c2)cc1`, the EC50 is 0.915 µM (active) in experiment [1], 0.915 µM (active) in [2] and > 195 µM (not active) in experiment [3].
For orientation: AC50 means the concentration at which the activity in the assay is half-maximal. As to `NC(=O)[C@H]1CC2(CC(c3cccc(NC(=O)COc4ccc(Cl)cc4)c3)=NO2)CN1C(=O)C(c1ccccc1)c1ccccc1` (stereo partly specified), the IC50 in [4] and in experiment [5] was > 69.5 µM (inactive) in each case. For the same compound, the figures for the AC50 in [6], in [7] and in experiment [8] were 5.73 µM (active), 2.68 µM (active) and 15.7 µM (active), respectively.
Consider `S=C(c1cn(CCOc2ccccc2)c2ccccc12)N1CCCC1`, for which the IC50 in experiment [9] was > 99 µM (inactive); in experiment [10], 0.727 µM (active); in experiment [11], 17 µM (active); in experiment [12] it was 8.8 µM (active); in [13], > 99 µM (inactive); in experiment [14] it was 0.129 µM (active). Moreover, the IC50 in experiment [15] is 5.47 µM (active); in [16], 3.97 µM (active); in experiment [17], 1.27 µM (active); in experiment [18] it was > 158 µM (not active).
In general, CC50 refers to the concentration that lowers cell viability or growth by half. For the compound `COC(=O)c1ccc(Cn2cc(/C=C\[N+](=O)[O-])c3ccccc32)o1`, the CC50 in experiment [19] was 10.4 µM (active). Moreover, the IC50 is > 25 µM (active) in experiment [20] and 6.73 µM (active) in experiment [21].
